Reference: PMC10177380 (Cancers, 2023)
Several values for one entry are separate records, joined by “and”; a condition that tells them apart may be missing. Equal entries are not always repeated. Where two headings read alike, the source gives them in different places.

Assays:
[1] = system: Du145 prostate; experiment: MTT growth inhibition, 72 h, Du145; format: cell-based; conditions: Du145, MTT, 72 h
[2] = system: H460 lung; experiment: MTT growth inhibition, 72 h, H460; format: cell-based; conditions: H460, MTT, 72 h
[3] = system: U87 glioblastoma; experiment: MTT growth inhibition, 72 h, U87; format: cell-based
[4] = system: MCF7 breast; experiment: MTT growth inhibition, 72 h, MCF7; format: cell-based; conditions: for GI50: MCF7, MTT, 72 h
[5] = system: SJG2 glioblastoma; experiment: MTT growth inhibition, 72 h, SJG2; format: cell-based
[6] = system: HT29 colon cells; experiment: ROS production, DCFDA/H2DCFDA cellular ROS assay; format: cell-based, human; conditions: treatment at GI50 concentration (TBHP positive control 20 μM)
Experimental: To determine the presence of ROS in treated cells, a DCFDA/H2DCFDA-cellular ROS Assay Kit (Abcam, Cambridge, MA, USA) was utilised, as previously reported. The ROS potential of platinum(II) precursors and platinum(IV) scaffolds, which were determined using the same method, were also presented in this study for comparison.
Additionally, the ROS potential of the platinum(II) precursors and platinum(IV) scaffolds was determined previously and was presented here to allow for comparison (Table 10 and Figure 13). […] Treatment with the complexes and ligands was completed at each specific GI50 concentration. […]
dimethylthiazol-2-yl]-2,5-diphenyltetrazolium bromide) assay and absorbance was read at 540 nm. An eight-point dose response curve was produced from which the GI50 value was calculated, representing the drug concentration at which cell growth was inhibited by 50% based on the difference between the optical density values on day 0 and those at the end of drug exposure.
4. Reactive Oxygen Species (ROS) Potential
A total of 25,000 cells/mL of HT29 cells in DMEM were seeded in 96-well plates. Cells were washed with 1X kit buffer, and then stained with 25 μM 2’,7’-dichlorofluorescein diacetate (DCFH-DA) and incubated for 45 min. DCFH-DA was then removed, and cells were then re-washed with 1X kit buffer, after which phenol red free media was added.
Cells were then treated with a GI50 drug concentration for each complex. The plates were directly scanned to measure fluorescence (relative fluorescence units (RFU)) at different time points using the Glo-Max®-Multimode microplate reader (Promega Corporation, Alexandra, VIC, Australia) at an excitation/emission of 485/535 nm. […]

[7] = system: ADDP ovarian variant (cisplatin-resistant A2780 clone); experiment: MTT growth inhibition, 72 h, ADDP; format: cell-based; conditions: ADDP, MTT, 72 h
[8] = system: A2780 ovarian; experiment: MTT growth inhibition, 72 h, A2780; format: cell-based
[9] = system: HT29 colon; experiment: MTT growth inhibition, 72 h, HT29; format: cell-based, human
[10] = system: multiple cell lines; experiment: MTT growth inhibition, over all cell lines tested; format: cell-based
[11] = system: MIA pancreas; experiment: MTT growth inhibition, 72 h, MIA; format: cell-based
[12] = system: H460 lung; parameters: method as in PMID 36296713, PMID 36142383; conditions: cited from earlier work
[13] = system: MIA pancreas; parameters: method as in PMID 36296713, PMID 36142383; conditions: cited from earlier work
[14] = system: SJG2 glioblastoma; parameters: method as in PMID 36296713, PMID 36142383; conditions: cited from earlier work
[15] = Reduction with ascorbic acid (AsA) in PBS followed by 1H-NMR and 1D-195Pt-NMR; format: physicochemical; conditions: 37 °C; for Reduction Times T50%: estimated 50% reduction; for Reduction Times T50% / Reduction Times T100%: PBS in D2O; for Reduction Times T100%: estimated 100% reduction; for time of complete reduction to platinum(II) precursor: final 1D-195Pt-NMR at 400 ppm
Experimental: The reduction behaviour of 1–6 was probed via ^1H-NMR and 1D-^195Pt-NMR spectroscopy, as previously described (see Supplementary Materials).
The reduction behaviour of 1–6 was monitored by ^1H-NMR and 1D-^195Pt-NMR spectroscopy using previously established methods. Prior to the reduction measurements, each metal complex was dissolved with PBS in D2O only.
Based on the initial 1D-^195Pt-NMR spectra acquired (Figures S62 and S63), the structural integrity of the complexes was retained, and no signs of reduction were observed, thus also confirming that the PBS had no effect on the complexes. Subsequently, AsA was added in each solution containing the metal complex, PBS and D2O. Then, sequential ^1H-NMR experiments were undertaken for 1 h, followed by final 1D-^195Pt-NMR experiments measured within the regions of 400 and −2800 ppm (Figures S64–S75). The approximate time points for 1–6 at which an estimated 50 and 100% reduction had occurred, in the presence of AsA, as represented by T50% and T100%, are summarised in Table 8.
A sequence of 1H-NMR experiments was carried out for 1 h at 37 °C, followed by 1D-195Pt-NMR within the regions of –2800 and 400 ppm. An amount of 10 mM PBS (~7.4 pH) was transferred to a vial and reduced to dryness through rotary evaporation. AsA (~1 mg) was combined with the metal complex (~5 mg) and transferred to the vial containing the dried PBS. 600 μL of D2O was then added to the vial to dissolve the complex, AsA and the PBS together. Each reaction was followed at 37 °C until the complete reduction […]
The cell lines tested were: HT29 colon, U87 glioblastoma, MCF-7 breast, A2780 ovarian, H460 lung, A431 skin, Du145 prostate, BE2-C neuroblastoma, SJ-G2 glioblastoma, MIA pancreas, ADDP ovarian variant, and the non-tumour derived MCF10A breast line. In […]
agents were prepared in DMSO (30 mM stock solutions) and stored at −20 °C until use.
All cell lines were cultured in a humidified atmosphere 5% carbon dioxide at 37 °C. The cancer cell lines were maintained in Dulbecco’s modified Eagle’s medium (DMEM) (Trace Biosciences, Sydney, NSW, Australia) supplemented with 10% foetal bovine serum, 10 mM sodium bicarbonate penicillin (100 IU mL−1), streptomycin (100 μg mL−1) and glutamine (4 mM). The non-cancer MCF10A cell line was cultured in DMEM:F12 (1:1) cell culture media, 5% heat inactivated horse serum, supplemented with penicillin (50 IU mL−1), streptomycin (50 μg mL−1), 20 mM 4-(2-hydroxyethyl)-1-piperazineethanesulfonic acid (HEPES), L-glutamine (2 mM), epidermal growth factor (20 ng mL−1), hydrocortisone (500 ng mL−1), cholera toxin (100 ng mL−1) and insulin (10 μg mL−1). Cytotoxicity was determined by plating cells in duplicate in […] medium at a density of 2500 – 4000 cells per well in 96 well plates. On day 0 (24 h after plating) when the cells were in logarithmic growth, 100 μL of medium with or without the test agent

[16] = all cell lines, MTT, 72 h, read-out: GI50 values over the cell lines tested
[17] = mean over all cell lines tested, read-out: Mean GI50 Values

Row | Compound | GI50 [3] | ROS Production ([6]; HT29, 24 h) | ROS Production ([6]; HT29, 48 h) | ROS Production ([6]; HT29, 72 h) | GI50 [10, 17] | GI50 [11] | GI50 [12] | GI50 [13] | GI50 [14] | GI50 [1] | GI50 [2] | GI50 [4] | Reduction Times T50% [15] | Reduction Times T100% [15] | GI50 [5] | GI50 [7] | GI50 [8] | GI50 [9] | further results
1 | COc1ccc2c(c1)c(CC(=O)OCC(=O)O)c(C)n2C(=O)c1ccc(Cl)cc1 [ACE, acemetacin] | > 50000 nM | 279 ± 7 RFU | 260 ± 9 RFU | 132 ± 13 RFU | > 50000 nM | > 50000 nM |  |  |  |  |  |  |  |  |  |  |  |  | GI50 ([1]; Homo sapiens, DU-145): > 50000 nM; GI50 ([2]; Homo sapiens, NCI-H460): > 50000 nM; GI50 ([4]; Homo sapiens): > 50000 nM; GI50 ([5]; SJ-G2): > 50000 nM; GI50 ([7]; Cisplatin-resistant A2780): > 50000 nM; GI50 ([8]; Homo sapiens): > 50000 nM; GI50 ([9]; Homo sapiens, HT-29): > 50000 nM; GI50 [10, 16]: > 50000 nM
2 | N.N.[Cl][Pt][Cl] [Cisplatin, cis-diamminedichloroplatinum(II)] |  | 299 ± 25 RFU | 370 ± 22 RFU | 392 ± 21 RFU |  |  | 900 ± 200 nM | 7500 ± 1300 nM | 400 ± 100 nM |  |  |  |  |  |  |  |  |  | 
3 | COc1ccc2cc([C@H](C)C(=O)[O][Pt+2]3([OH])[N]4C=CC=c5ccc6c(c54)[N]3C=CC=6)ccc2c1.N[C@H]1CCCC[C@@H]1N [Complex 1, [Pt^IV(phen)(SS-DACH)(NPX)(OH)]^2+] | 2570 ± 440 nM | 235 ± 23 RFU | 215 ± 19 RFU | 63 RFU and 63 ± 7 RFU | 931 ± 139 nM | 660 ± 100 nM |  |  |  | 230 ± 17 nM | 860 ± 124 nM | 1120 ± 342 nM | 20 to 25 min | post 60 min | 1570 ± 67 nM | 400 ± 19 nM | 420 ± 50 nM | 400 ± 23 nM | 
4 | COc1ccc2cc([C@H](C)C(=O)[O][Pt+2]3([OH])[N]4C=CC=c5cc(C)c6c(c54)[N]3C=CC=6)ccc2c1.N[C@H]1CCCC[C@@H]1N (stereo partly shown) [Complex 2, [Pt^IV(5-Mephen)(SS-DACH)(NPX)(OH)]^2+] | 1330 ± 190 nM | 290 ± 17 RFU | 261 ± 15 RFU | 84 RFU and 84 ± 9 RFU | 490 ± 75 nM | 370 ± 54 nM |  |  |  | 130 ± 27 nM | 410 ± 37 nM | 720 ± 240 nM | 10 to 15 min | post 60 min | 620 ± 43 nM | 280 ± 27 nM | 290 ± 56 nM | 210 ± 19 nM | time of complete reduction to platinum(II) precursor [15]: ~ 1.5 h
5 | COc1ccc2cc([C@H](C)C(=O)[O][Pt+2]3([OH])[N]4C=CC=c5c(C)c(C)c6c(c54)[N]3C=CC=6)ccc2c1.N[C@H]1CCCC[C@@H]1N [Complex 3, [Pt^IV(5,6-Me2phen)(SS-DACH)(NPX)(OH)]^2+] | 180 ± 23 nM | 297 ± 21 RFU | 287 ± 11 RFU | 104 RFU and 104 ± 15 RFU | 84 ± 12 nM | 47 ± 7 nM |  |  |  | 10 ± 2 nM | 56 ± 5 nM | 60 ± 22 nM | 10 to 15 min | post 60 min | 230 ± 18 nM | 25 ± 2 nM | 39 ± 9 nM | 28 ± 6 nM | time of complete reduction to platinum(II) precursor [15]: ~ 1.5 h
6 | COc1ccc2c(c1)c(CC(=O)OCC(=O)[O][Pt-2]13([OH])([NH2+][C@H]4CCCC[C@@H]4[NH2+]1)[n+]1cccc4ccc5ccc[n+]3c5c41)c(C)n2C(=O)c1ccc(Cl)cc1 [Complex 4, [Pt^IV(phen)(SS-DACH)(ACE)(OH)]^2+] | 1720 ± 140 nM | 303 ± 8 RFU | 298 ± 17 RFU | 168 RFU and 168 ± 15 RFU | 735 ± 58 nM | 490 ± 36 nM |  |  |  | 150 ± 40 nM | 610 ± 80 nM | 840 ± 390 nM |  | 10 to 15 min | 1450 ± 104 nM | 330 ± 27 nM | 350 ± 47 nM | 290 ± 30 nM | fold decrease of GI50 relative to the platinum(IV) scaffold [4]: 19 fold; fold difference of mean GI50 compared to platinum(II) precursor [10]: 1- to 2 fold
7 | Cc1cc2c3c4c1=CC=C[N]4[Pt+2][N]3C=CC=2.N[C@H]1CCCC[C@@H]1N [Complex 5MESS] |  |  |  |  |  |  | 41 ± 5 nM | 48 ± 2 nM | 220 ± 10 nM |  |  |  |  |  |  |  |  |  | 
8 | Cc1c(C)c2cccnc2c2ncccc12.N[C@H]1CCCC[C@@H]1N.[Pt] [Complex 56MESS, [Pt^II(5,6-Me2phen)(SS-DACH)]^2+] |  |  |  |  |  |  | 21 ± 2 nM | 13 ± 2 nM | 66 ± 22 nM |  |  |  |  |  |  |  |  |  | 
9 | COc1ccc2cc([C@H](C)C(=O)O)ccc2c1 [NPX, naproxen] | > 50000 nM | 187 ± 12 RFU | 178 ± 13 RFU | 15 ± 5 RFU | > 50000 nM | > 50000 nM |  |  |  |  |  |  |  |  |  |  |  |  | GI50 ([1]; Homo sapiens, DU-145): > 50000 nM; GI50 ([2]; Homo sapiens, NCI-H460): > 50000 nM; GI50 ([4]; Homo sapiens): > 50000 nM; GI50 ([5]; SJ-G2): > 50000 nM; GI50 ([7]; Cisplatin-resistant A2780): > 50000 nM; GI50 ([8]; Homo sapiens): > 50000 nM; GI50 ([9]; Homo sapiens, HT-29): > 50000 nM; GI50 [10, 16]: > 50000 nM
10 | C1=C[N]2[Pt+2][N]3C=CC=c4ccc(c2c43)=C1.N[C@H]1CCCC[C@@H]1N [PHENSS] |  |  |  |  |  |  | 360 ± 35 nM | 200 ± 57 nM | 330 ± 66 nM |  |  |  |  |  |  |  |  |  | 
